Reference: paper PMC10525924, “Engineering and Purification of Microcin C7 Variants Resistant to Trypsin and Analysis of Their Biological Activity” (Antibiotics, 2023)
“Also recorded” adds a separate entry of the source. Where a SMILES comes first, the peptide text is derived from it. Where no end group is shown, it is not given here.

Experiments:
[1] = tested on: pepsin; test: Remaining amount by RP-HPLC after pepsin treatment; assay type: in vitro ADME; conditions: pepsin (isolated protease); pepsin treated for 3 h; read-out RP-HPLC; Table S2
[2] = tested on: indicator bacteria; conditions: second to seventh codons of mccA replaced; cited from earlier work
Source text: The heptapeptide precursor of McC, f-MRTGNAN, is encoded by the first gene in the mcc gene clusters, mccA [11]. Considering its protein nature, it is suitable for gene-based peptide engineering. Kazakov et al. first applied site-directed mutagenesis on the mccA gene, systematically replacing the second to seventh codons of mccA encoding 19 standard amino acids for a total of 114 mutations.

[3] = tested on: E. coli K88; test: microbe, parasite or virus in culture; assay type: cell-based; conditions: agar diffusion, fermentation supernatant, not trypsin-treated
[4] = tested on: chymotrypsin; test: Remaining amount by RP-HPLC after chymotrypsin treatment; assay type: in vitro ADME; conditions: chymotrypsin (isolated protease); chymotrypsin treated for 3 h; read-out RP-HPLC; Table S2
[5] = tested on: trypsin; test: Remaining amount by RP-HPLC after trypsin treatment; conditions: trypsin treatment 3 h
Experimental: To test whether the variants were tolerant to trypsin or other digestive enzymes, the amount of the remaining McC and its analogues remaining was determined by RP-HPLC after trypsin, pepsin, and chymotrypsin treated for 3 h (Table S2), and the inhibition zones of trypsin-treated variants were tested using the same method (Table 2).
The fermentation broth was collected via centrifugation at 12,000× g at 4 °C for 10 min; the supernatants contained the McC variants. The supernatants and trypsin were mixed at a ratio of 9:1 (v/v; the final concentration of trypsin was 50 μg/mL) and incubated in a bath at 37 °C for 3 h. The pH was adjusted to 6.8. The pH value of the fermentation broth was measured before and after treatment, and an approximate pH value of 7 was considered normal.

[6] = tested on: chymotrypsin; conditions: cited from earlier work
Source text: (§1) The McC as a new generation of antimicrobials is now receiving increased attention because of its antimicrobial activity against a wide range of Gram-negative bacteria, including Escherichia, Klebsiella, Salmonella, Shigella, and Proteus species. However, […] proteolytic enzymes in the stomach and the small intestine, such as pepsin, trypsin, and chymotrypsin, need to be considered before the application of McC or other microcins in different fields.

[7] = cited from earlier work
Source text: as §1

Compound	remaining at 3 h [1] [%]	antimicrobial activity of mccA substitution variants [2]	bacteriostatic effect on indicator strain K88 [3]	remaining at 3 h [4] [%]	degradation by / resistance to trypsin [5]	degradation upon exposure to chymotrypsin [6]	stability in the gastrointestinal tract [7]
CSCC[C@H](NC=O)C(=O)N[C@@H](Cc1c[nH]c2ccccc12)C(=O)N[C@H](C(=O)NCC(=O)N[C@@H](CC(N)=O)C(=O)N[C@@H](C)C(=O)N[C@@H](CC(=O)O)C(=O)NP(=O)(OCCCN)OC[C@H]1O[C@@H](n2cnc3c(N)ncnc32)[C@H](O)[C@@H]1O)[C@@H](C)O (stereo partly shown) [R2W] (HELM PEPTIDE1{[O=C[*:2]].M.W.T.G.N.A.[NCCCOP(=O)(NC(=O)[C@H](CC(=O)O)N[*:1])OC[C@H]1O[C@@H](n2cnc3c(N)ncnc32)[C@H](O)[C@@H]1O]}$$$$V2.0)	91.3 ± 1.26	bacteriostatic	no bacteriostatic effects	41.3 ± 1.03	–	–	–
MRPGNAN [T3P]	–	–	no bacteriostatic effects	–	no longer degraded by trypsin; also recorded: exhibited resistance to trypsin	–	–
MRPTGNAN	–	–	no bacteriostatic effects	–	no longer degraded by trypsin; also recorded: exhibited resistance to trypsin	–	–
microcin J25 (GGAGHVPEYFVGIGTPISFYG; ends and bridges not checked; UniProt Q9X2V7 38-58, looked up) [microcin studied by Yu et al]	–	–	–	–	–	completely degraded	stable
